Consider `CC(C)(C)OC(=O)NC(Cc1cc2ccccc2s1)C(=O)O` (centres undefined), for which the melting point is 128 to 129 °C.

As for `NS(=O)(=O)c1cc2c(s1)SCCCC2=O`, the melting point fell in the range of 185 to 186 °C.

`O=S(=O)(c1cccs1)c1ccc(O)c(Cl)c1Cl` returned a melting point of 220 °C.

Take `Nc1ccc(Br)n2nc(SCc3ccccc3)nc12`: the melting point lay within 125 to 126 °C.

For `CC12CC(N3CCC(=O)CC3)C(O)CC1CCC1C2CCC2(C)C(O)C(N3CCCCC3)CC12` (centres undefined), the melting point was in the range of 205 to 206 °C.

In turn, `Cc1cc2c(s1)CCCC1CC(=O)N(c3ccccc3)N=C21` (centres undefined) gave a melting point of 102 to 103 °C.

For `COc1ccc(CN2Cc3c(-c4noc(C5CC5)n4)ncn3-c3ccc(Cl)cc3C2=O)c(OC)c1`, the melting point was 198 to 205 °C.

In turn, `CCc1nsc(C(=O)NC(C)C)c1C(=O)O` displayed a melting point of 138 to 140 °C.

On to `OCCN1CCN(C2=Nc3ccccc3Oc3cscc32)CC1`, for which the melting point lay in the range of 187 to 192 °C.

Turning to `CC(C)c1csc2[nH]c(=O)c(=O)[nH]c12`, the melting point is more than 250 °C.

Turning to `Brc1ccc2c(c1)C=NC=CN2`, the melting point fell in the range of 135 to 138 °C.

`CCC(=CC(CNC(=O)c1cccnc1SC)=NO)C(C)[N+](=O)[O-]` (centres undefined) displayed a melting point of 161 to 163 °C.

`O=C(c1c2n(c3ccccc13)CCNCC2)C(F)(F)F` showed a melting point of 131 to 133 °C.

As to `O=C1CCC(N2Cc3c(OCc4ccc(CN5CCC(C(F)(F)F)CC5)cc4)cccc3C2=O)C(=O)N1` (centres undefined), the melting point was 178 to 180 °C.

Regarding `COc1ccc2[nH]c(C(=O)c3cc4ccccc4[nH]3)cc2c1`, the melting point was determined as 112 °C.

The compound `COc1ccc(C)c(N2CCN(C(=O)Nc3cc4ccccc4nc3OC)CC2)c1` came in with a melting point of 128 to 130 °C.

With `CC1(C(O)(COc2ccc(Cl)cc2)Cn2cncn2)CC1(F)F` (centres undefined), the melting point is 110 °C.

`CCOC(=O)N(c1cccc(C(F)(F)F)c1)c1ccccc1N` gave a melting point of 105 to 108 °C.

Turning to `CN(C#N)c1ccc(OCc2ccccc2)cc1`, the melting point came out at 116 °C.

Turning to `CSc1cnc(Cl)c(Cl)c1`, the melting point was 66 to 67 °C.

Compound `O=C1c2ccccc2C(=O)N1OCc1cn(C(c2ccccc2)(c2ccccc2)c2ccccc2)nn1` registered a melting point of 195 to 200 °C.

Regarding `CCOC(=O)c1cc(-n2c(=O)c3c(n(C)c2=O)CSC3)ccc1Cl`, the melting point lay in the range of 203 to 206 °C.

The compound `Cc1nnc(N2N=C(c3ccc([N+](=O)[O-])cc3)c3cc4c(cc3CC2C)OCO4)s1` (centres undefined) had a melting point of 101 to 102 °C.

Compound `CCCc1nc(SCCCCC(=O)O)c(C(=O)O)n1Cc1cc2c(cc1Cl)OCO2` displayed a melting point of 156 °C.

The compound `COc1cccc(C(O)CN(C)Cc2sc3c(=O)c(C(=O)NCc4ccc(Cl)cc4)cn(C)c3c2CO)c1` (centres undefined) came in with a melting point of 165 to 168 °C.

The compound `c1cc(CN2CCCC2)cc(OCCCNc2nc3ccccc3s2)c1` returned a melting point of 91 to 92 °C.

`Cc1nc(N2CCC(CC3CC3)C2=O)sc1C(=O)NCc1ccc(F)cc1` (centres undefined) registered a melting point of 153 to 155 °C.

In the case of `Cc1ncc(CNC(=O)c2ccc3n2Cc2ccccc2N(C(=O)CSc2ccc(Br)cc2)C3)c(CO)c1O`, the melting point lay within 199 to 200 °C.

Compound `CCCOc1ccc(O)cc1OC` came in with a melting point of 54 to 56 °C.

`CCn1c2ccc(C)cc2c2c3ccccc3ccc21`: the melting point lay in the range of 69 to 74 °C.

On to `O=C1c2cccc3cccc(c23)C(=O)N1CCCCCBr`, for which the melting point was in the range of 113 to 115 °C.

Take `Nc1ncc(Cl)c(CN2CCCC2)c1Cl`: the melting point fell in the range of 98 to 101 °C.

Compound `CCO[PH](=O)Cc1cc(Oc2ccc(C(F)(F)F)cc2Cl)ccc1[N+](=O)[O-]` (centres undefined) had a melting point of 106 to 107 °C.

With `CCCCOC(=O)CN(Cc1ccccc1OC)S(=O)(=O)c1ccc2c(Cl)cnc(Cl)c2c1`, the melting point lay within 106 to 108 °C.

In turn, `Nc1nc2ccccc2c2c1nc(CC1CC1)n2CCOc1ccccc1` gave a melting point of 192 to 193 °C.

On to `COc1ccc2c(c1)S(=O)(=O)N(CCCN1CCN(c3ncccn3)CC1)C(=O)N2`, for which the melting point was 178 °C.

Turning to `CC1(C)C=C(N2Cc3ccccc3C2=O)c2cc(S(=O)(=O)C(F)(F)C(F)(F)C(F)(F)F)ccc2O1`, the melting point was in the range of 164 to 166 °C.

`CC12CCC(=O)C=C1CC(O)C1C2CCC2(C)C(O)CCC12` (centres undefined) gave a melting point of 191 to 193 °C.

The compound `Nc1nc(CCl)cc(OCC(F)(F)F)n1` returned a melting point of 77 to 78 °C.

As to `O=C1CNC(c2cc(Br)cc(-c3ccsc3)c2)=NN1CC(F)(F)F`, the melting point lay in the range of 167 to 169 °C.

Take `O=C1CC(c2ccc(O)cc2)=Nc2ccc(N3CCOCC3)cc21`: the melting point lay within 340 to 342 °C.

In the case of `Cn1cc(C2=C(c3cn(C)c4cc(O)ccc34)C(=O)NC2=O)c2ccccc21`, the melting point was in the range of 279 to 282 °C.

`O=C(O)c1ccc(-c2coc(-c3ccc(Cl)cc3)n2)cc1` yielded a melting point of 288 to 289 °C.

On to `CCc1ccc(N(Cc2ccc(N3CCOCC3)cc2)C(=O)Nc2c(C(C)C)cccc2C(C)C)cc1`, for which the melting point is 159 to 161 °C.

Compound `CC(C#CC1CCCC1)N(O)C(N)=O` (centres undefined) registered a melting point of 140 to 141 °C.

`O=[N+]([O-])c1ccc(N2CCN(CCCN3c4cccc5cccc(c45)S3(=O)=O)CC2)cc1` returned a melting point of 186 °C.

Take `CC(C)Nc1ccc(O)cc1`: the melting point worked out at 143 °C.

Turning to `COc1c([N+](=O)[O-])c([N+](=O)[O-])c(OC)c2[nH]c(C(F)(F)F)nc12`, the melting point is 208 to 210 °C.

Consider `CCCn1c(=S)sc2c(=N)n(NC(=O)c3ccco3)cnc21`, for which the melting point came out at 206 °C.

The compound `CCOC(=O)c1nc(N)sc1-c1cn2c(C)cccc2n1` came in with a melting point of 234 to 236 °C.

`O=C(NC1N=C(c2ccccc2F)c2ccccc2N(C(=O)c2ccc(Cl)cc2)C1=O)c1ccc(Cl)cc1` (racemic): the melting point was in the range of 190 to 191 °C.

In the case of `CON=C(C(=O)O)c1nc(NC=O)sc1Cl`, the melting point lay in the range of 175 to 177 °C.

Compound `O=C1Nc2ccccc2C12COc1ccc3nonc3c12` (centres undefined) had a melting point of more than 220 °C.

Consider `Cc1cnc(I)nc1Oc1cc(C(F)(F)F)nn1C`, for which the melting point was 94 °C.

`Cc1ccccc1OCC(O)CN1CCC(N2CCCNC2=O)CC1` (centres undefined) yielded a melting point of 145 to 147 °C.

In the case of `Nc1nc2ccccc2c2c1ncn2COCc1ccccc1`, the melting point lay within 168 to 172 °C.

`CCc1nc([N+](=O)[O-])c(CBr)n1C`: the melting point was in the range of 91 to 93 °C.

In the case of `CCOC(=O)c1ccc(S(C)(=O)=O)nc1C(F)(F)F`, the melting point was 70 to 72 °C.

Take `CC(C)C[C@@H](NC(=O)OC(C)(C)C)C(=O)N[C@H](C(=O)OCc1ccccc1)C(C)C`: the melting point fell in the range of 82 to 83 °C.

Regarding `CC(=O)CC(=O)C=Cc1ccc2[nH]ccc2c1`, the melting point is 136 to 137 °C.

As for `COC(COC(=O)C1=C(C)NC2=C(C(=O)CNC2)C1c1cccc(Cl)c1)c1ccccc1` (centres undefined), the melting point was 165 to 167 °C.

As to `COc1ccc(-c2[nH]nc3c2C(=O)c2c(NC=O)cccc2-3)cc1`, the melting point was 280 °C.

The compound `COC1=NS(=O)(=O)N=C1NCCCCC#CCN(C)C` came in with a melting point of 172 to 174 °C.

Turning to `Cc1cc(C(=O)N2Cc3ccc(C(=O)N(C)C[C@H](O)[C@H]4OC(=O)O[C@@H]4[C@H](O)CO)n3Cc3ccccc32)ccc1C1=CCCCC1`, the melting point was in the range of 166 to 175 °C.

As a reminder, the melting point is the temperature, or range, at which the solid turns liquid.

Source of the values: a melting point compilation (Tetko et al.; mined from patent text by program, amines drawn as free bases though some values may be those of a salt).
